Assay results taken from PubChem BioAssay (NCI).
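1) Cells in 96-well plates. 2) Compound, 48 h, 5 concentrations. 3) Linear interpolation between surrounding doses. 4) Unreached endpoint = highest concentration. Definition used: TGI = concentration required for complete inhibition of growth.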

Key:
Assay in all cases: inhibition of tumour cell growth, NCI panel, 48 h
UACC-62 melanoma = system: UACC-62 melanoma
SW-620 colon = system: SW-620 colon
OVCAR-4 ovarian = system: OVCAR-4 ovarian
HOP-92 NSCLC = system: HOP-92 NSCLC
KM12 colon = system: KM12 colon
786-0 renal = system: 786-0 renal
NCI-H226 lung = system: NCI-H226 lung
SK-MEL-28 melanoma = system: SK-MEL-28 melanoma
MOLT-4 leukemia = system: MOLT-4 leukemia
OVCAR-5 ovarian = system: OVCAR-5 ovarian
SK-MEL-5 melanoma = system: SK-MEL-5 melanoma
DU-145 prostate = system: DU-145 prostate
HS 578T breast = system: HS 578T breast

C/C=C/C#CC#C/C=C/C=C/C(O)CCO (stereo not drawn)
TGI (UACC-62 melanoma): > 23.1 µM
TGI (SW-620 colon): > 23.1 µM
TGI (OVCAR-4 ovarian): > 23.1 µM
TGI (HOP-92 NSCLC): > 23.1 µM
TGI (KM12 colon): > 23.1 µM
TGI (786-0 renal): > 23.1 µM
TGI (NCI-H226 lung): > 23.1 µM
TGI (SK-MEL-28 melanoma): > 23.1 µM
TGI (MOLT-4 leukemia): > 23.1 µM
TGI (OVCAR-5 ovarian): > 23.1 µM
TGI (SK-MEL-5 melanoma): > 23.1 µM

O=c1[nH]nc(Cc2ccccc2)n1C1CCCC1
TGI (UACC-62 melanoma): > 100 µM
TGI (SW-620 colon): > 100 µM
TGI (OVCAR-4 ovarian): > 100 µM
TGI (KM12 colon): > 100 µM
TGI (DU-145 prostate): > 100 µM
TGI (786-0 renal): > 100 µM
TGI (NCI-H226 lung): > 100 µM
TGI (SK-MEL-28 melanoma): > 100 µM
TGI (HS 578T breast): > 100 µM
TGI (MOLT-4 leukemia): > 100 µM
TGI (OVCAR-5 ovarian): > 100 µM
TGI (SK-MEL-5 melanoma): > 100 µM

NNC(=O)c1c(-c2cccnc2)cnc2ccccc12
TGI (UACC-62 melanoma): > 100 µM
TGI (SW-620 colon): > 100 µM
TGI (OVCAR-4 ovarian): > 100 µM
TGI (HOP-92 NSCLC): > 100 µM
TGI (KM12 colon): > 100 µM
TGI (DU-145 prostate): > 100 µM
TGI (786-0 renal): > 100 µM
TGI (NCI-H226 lung): > 100 µM
TGI (SK-MEL-28 melanoma): > 100 µM
TGI (MOLT-4 leukemia): > 100 µM
TGI (OVCAR-5 ovarian): > 100 µM
TGI (SK-MEL-5 melanoma): > 100 µM

[O-]c1c2cc(-[n+]3c(-c4ccccc4)cc(-c4ccccc4)cc3-c3ccccc3)cc1COCCOCCOCCOCCOC2
TGI (UACC-62 melanoma): 44.2 µM
TGI (SW-620 colon): > 100 µM
TGI (OVCAR-4 ovarian): > 100 µM
TGI (HOP-92 NSCLC): 73.9 µM
TGI (KM12 colon): 50 µM
TGI (786-0 renal): > 100 µM
TGI (NCI-H226 lung): > 100 µM
TGI (SK-MEL-28 melanoma): 46.7 µM
TGI (MOLT-4 leukemia): > 100 µM
TGI (OVCAR-5 ovarian): > 100 µM

Cc1nc2ccc(C(F)(F)F)cc2nc1NCc1ccc(Cl)c(Cl)c1
TGI (UACC-62 melanoma): 18.5 µM
TGI (SW-620 colon): 34.7 µM
TGI (KM12 colon): 30.1 µM
TGI (DU-145 prostate): 31.8 µM
TGI (786-0 renal): 30.3 µM
TGI (NCI-H226 lung): 37.9 µM
TGI (SK-MEL-28 melanoma): 33.9 µM
TGI (HS 578T breast): 45.5 µM
TGI (MOLT-4 leukemia): 35.8 µM
TGI (OVCAR-5 ovarian): 25.9 µM
TGI (SK-MEL-5 melanoma): 33.8 µM

O=C(c1cccs1)N(C(=S)OCCOc1ccccc1)c1ccccc1
TGI (UACC-62 melanoma): 37.7 µM
TGI (SW-620 colon): 80 µM
TGI (OVCAR-4 ovarian): 86.7 µM
TGI (HOP-92 NSCLC): 45.9 µM
TGI (KM12 colon): 81 µM
TGI (DU-145 prostate): > 100 µM
TGI (786-0 renal): 73.7 µM
TGI (SK-MEL-28 melanoma): 55.9 µM
TGI (HS 578T breast): > 100 µM
TGI (MOLT-4 leukemia): 67.9 µM
TGI (OVCAR-5 ovarian): 70.2 µM

Oc1ccc2cc(Br)ccc2c1-c1c(O)ccc2ccc(Br)cc12
TGI (UACC-62 melanoma): 31 µM
TGI (SW-620 colon): 24.2 µM
TGI (KM12 colon): 18.9 µM
TGI (DU-145 prostate): 29.2 µM
TGI (786-0 renal): 28.2 µM
TGI (NCI-H226 lung): 30.4 µM
TGI (SK-MEL-28 melanoma): 33.5 µM
TGI (HS 578T breast): 24.2 µM
TGI (MOLT-4 leukemia): 20.4 µM
TGI (OVCAR-5 ovarian): 30.8 µM
TGI (SK-MEL-5 melanoma): 37.5 µM

O=[N+]([O-])c1cccc2nc3ccccc3c(NCCCNc3c4ccccc4nc4cccc([N+](=O)[O-])c34)c12
TGI (UACC-62 melanoma): 0.245 µM
TGI (SW-620 colon): > 100 µM
TGI (OVCAR-4 ovarian): 0.302 µM
TGI (HOP-92 NSCLC): < 0.01 µM
TGI (KM12 colon): 0.073 µM
TGI (786-0 renal): < 0.01 µM
TGI (NCI-H226 lung): 11.7 µM
TGI (SK-MEL-28 melanoma): 0.181 µM
TGI (MOLT-4 leukemia): 0.0972 µM
TGI (SK-MEL-5 melanoma): 0.0221 µM

O=C(/C=C/c1ccccc1)Oc1ccc(C(=O)/C=C/c2ccc(Cl)cc2)cc1
TGI (UACC-62 melanoma): > 100 µM
TGI (SW-620 colon): > 100 µM
TGI (KM12 colon): > 100 µM
TGI (DU-145 prostate): > 100 µM
TGI (786-0 renal): > 100 µM
TGI (SK-MEL-28 melanoma): > 100 µM
TGI (MOLT-4 leukemia): > 100 µM
TGI (OVCAR-5 ovarian): > 100 µM
TGI (SK-MEL-5 melanoma): > 100 µM

Nc1c([N+](=O)[O-])nc(Cl)c2nncn12
TGI (UACC-62 melanoma): > 100 µM
TGI (SW-620 colon): > 100 µM
TGI (OVCAR-4 ovarian): > 100 µM
TGI (HOP-92 NSCLC): > 100 µM
TGI (KM12 colon): > 100 µM
TGI (786-0 renal): > 100 µM
TGI (NCI-H226 lung): > 100 µM
TGI (SK-MEL-28 melanoma): > 100 µM
TGI (MOLT-4 leukemia): > 100 µM
TGI (OVCAR-5 ovarian): > 100 µM
TGI (SK-MEL-5 melanoma): > 100 µM
